From patent US11524966B1 (Valo Early Discovery, Inc., priority 2017, dated 2022) come the findings set out here.

Where only a bound is given, the exact number is not on record here.

For the assay, the target named is T1, USP25 (USP25-His6, Boston Biochem E-546) (Homo sapiens, UniProt Q9UHP3).
T1 construct: His6; purchased Boston Biochem E-546
T1 sequence (Q9UHP3 1-1055): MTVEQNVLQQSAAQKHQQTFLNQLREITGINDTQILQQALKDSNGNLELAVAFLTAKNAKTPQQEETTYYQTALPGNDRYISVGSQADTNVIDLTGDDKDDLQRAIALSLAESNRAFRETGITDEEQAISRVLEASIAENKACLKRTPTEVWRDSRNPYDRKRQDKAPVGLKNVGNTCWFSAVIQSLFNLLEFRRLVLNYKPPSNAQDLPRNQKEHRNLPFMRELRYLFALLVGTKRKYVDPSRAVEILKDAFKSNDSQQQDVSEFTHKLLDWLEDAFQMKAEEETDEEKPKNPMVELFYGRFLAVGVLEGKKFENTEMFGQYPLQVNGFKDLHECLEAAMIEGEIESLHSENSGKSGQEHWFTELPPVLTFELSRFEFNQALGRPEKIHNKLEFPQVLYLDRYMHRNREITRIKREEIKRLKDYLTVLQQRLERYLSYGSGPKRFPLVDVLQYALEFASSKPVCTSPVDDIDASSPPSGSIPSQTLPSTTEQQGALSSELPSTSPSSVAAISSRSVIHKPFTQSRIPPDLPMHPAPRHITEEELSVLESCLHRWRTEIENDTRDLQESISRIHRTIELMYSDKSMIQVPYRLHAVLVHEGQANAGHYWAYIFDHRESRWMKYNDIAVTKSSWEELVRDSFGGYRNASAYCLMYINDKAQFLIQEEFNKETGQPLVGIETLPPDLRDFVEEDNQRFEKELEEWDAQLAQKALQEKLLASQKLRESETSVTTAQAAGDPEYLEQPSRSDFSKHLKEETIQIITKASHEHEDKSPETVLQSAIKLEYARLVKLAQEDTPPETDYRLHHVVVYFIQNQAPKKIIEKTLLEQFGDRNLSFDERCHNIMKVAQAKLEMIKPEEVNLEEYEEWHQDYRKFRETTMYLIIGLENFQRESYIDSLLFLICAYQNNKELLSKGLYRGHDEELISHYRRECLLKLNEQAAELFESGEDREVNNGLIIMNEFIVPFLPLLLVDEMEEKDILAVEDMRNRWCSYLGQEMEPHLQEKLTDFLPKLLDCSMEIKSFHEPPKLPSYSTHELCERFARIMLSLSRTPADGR
Kind of assay: Ubiquitin-Rhodamine 110 Assay for USP25 Activity, Example A-2. The assay is classed as biochemical. Conditions: Ubiquitin-Rhodamine 110 assay, Example A-2; read-out: USP25 A-2 IC50 range. The essentials: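 Steps: compound dilutions (top 25 μM, 3-fold, 10 points) were preincubated 30 min with 75 pM USP25-His6; 25 nM Ub-Rh110 substrate was added under initial-velocity conditions; after 45 min at room temperature, 10 mM citric acid stopped the reaction before fluorescence reading.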
For `O=C(N[C@@H]1CCc2cc(N3CC4CCC(C3)N4)cc(F)c2C1)c1cnc2c(c1)[C@H]1C[C@H]1CN2` [Example 194, (6aR,7aS)-N-[(2R)-6-{3,8-diazabicyclo[3.2.1]octan-3-yl}-8-fluoro-1,2,3,4-tetrahydronaphthalen-2-yl]-5H,6H,6aH,7H,7aH-cyclopropa[c]1,8-naphthyridine-2-carboxamide], the IC50 (in general, the concentration at which inhibition is half-maximal) lay within 0.2 to 2 µM.
`Cc1ccc2c(N)c(C(=O)N[C@H]3COc4cc(N5CCC[C@@H]6CNC[C@@H]65)ccc4C3)sc2n1` [Example 242, N-[(3R)-7-[(4aR,7aR)-octahydro-1H-pyrrolo[3,4-b]pyridin-1-yl]-3 ,4-dihydro-2H-1-benzopyran-3-yl]-3-amino-6-methylthieno[2,3-b]pyridine-2-carboxamide]: the IC50 is 0.05 to 0.2 µM.
In the case of `Cc1cc(C)c2c(N)c(C(=O)N[C@H]3CCc4nc(N5CC[C@H]6CNC[C@H]65)ccc4C3)sc2n1` [Example 218, N-[(6S)-2-[(3aS 6aS)-octahydropyrrolo[2,3-c]pyrrol-1-yl]-5,6,7,8-tetrahydroquinolin-6-yl]-3-amino-4,6-dimethylthieno[2,3-b]pyridine-2-carboxamide] it was 0.2 to 2 µM; in that of `N#Cc1c(N2CC3CCC(C2)N3)cc(F)c2c1OC[C@H](NC(=O)c1cnc3c(c1)[C@H]1C[C@H]1CN3)C2` [Example 229, (6aR,7aS)-N-[(3R)-8-cyano-7-{3,8-diazabicyclo[3.2.1]octan-3-yl}-5-fluoro-3,4-dihydro-2H-1-benzopyran-3-yl]-5H,6H,6aH,7H,7aH-cyclopropa[c]1,8-naphthyridine-2-carboxamide], above 2 µM.
In the case of `Cc1ccc2c(N)c(C(=O)N[C@H]3COc4cc(N5CC6CCC[C@]6(N)C5)ccc4C3)sc2n1` (stereo partly drawn) [Example 249, N-[(3R)-7-[(3aR)-3a-amino-octahydrocyclopenta[c]pyrrol-2-yl]-3,4-dihydro-2H-1-benzopyran-3-yl]-3-amino-6-methylthieno[2,3-b]pyridine-2-carboxamide] it was 0.05 to 0.2 µM; in that of `Cc1ccc2c(N)c(C(=O)N[C@H]3COc4cc(N5C[C@@H](N)C(F)(F)C5)ccc4C3)sc2n1` [Example 257, 3-amino-N-[(3R)-7-[(4R)-4-amino-3,3-difluoropyrrolidin-1-yl]-3,4-dihydro-2H-1-benzopyran-3-yl]-6-methylthieno[2,3-b]pyridine-2-carboxamide], 0.05 to 0.2 µM; in that of `Cc1ccc2c(N)c(C(=O)N[C@H]3COc4cc(N5CC[C@@H]6CC[C@@H](N)C[C@@H]65)ccc4C3)sc2n1` [Example 233, N-[(3R)-7-[(3aS,6R,7aS)-6-amino-octahydro-1H-indol-1-yl]-3,4-dihydro-2H-1-benzopyran-3-yl]-3-amino-6-methylthieno[2,3-b]pyridine-2-carboxamide], 0.001 to 0.05 µM.
Regarding `CCO[C@H]1CN(c2ccc3c(n2)CC[C@H](NC(=O)c2sc4nc(C)ccc4c2N)C3)C[C@H]1N` [Example 255, 3-amino-N-[(6S)-2-[(3R,4S)-3-amino-4-ethoxypyrrolidin-1-yl]-5,6,7,8-tetrahydroquinolin-6-yl]-6-methylthieno[2,3-b]pyridine-2-carboxamide], the half-maximal inhibitory concentration (IC50) is above 2 µM.
In the case of `N#Cc1c(N2CC3CCC(C2)N3)cc(F)c2c1CC[C@H](NC(=O)c1cnc3c(c1)[C@@H]1C[C@@H]1CN3)C2` [Example 195, (6aS,7aR)-N-[(2S)-5-cyano-6-{3,8-diazabicyclo[3.2.1]octan-3-yl}-8-fluoro-1,2,3,4-tetrahydronaphthalen-2-yl]-5H,6H,6aH,7H,7aH-cyclopropa[c]1,8-naphthyridine-2-carboxamide] it was 0.05 to 0.2 µM; in that of `CO[C@H]1CN(c2cc3c(c(F)c2C#N)C[C@@H](NC(=O)c2sc4nc(C)ccc4c2N)CO3)C[C@@H]1N` [Example 200], 0.05 to 0.2 µM.
Regarding `O=C(N[C@H]1CCc2cc(N3CC4CCC(C3)N4)cc(F)c2C1)c1cnc2c(c1)[C@H]1C[C@H]1CN2` [Example 192, (6aR,7aS)-N-[(2S)-6-{3,8-diazabicyclo[3.2.1]octan-3-yl}-8-fluoro-1,2,3,4-tetrahydronaphthalen-2-yl]-5H,6H,6aH,7H,7aH-cyclopropa[c]1,8-naphthyridine-2-carboxamide], the IC50 is 0.05 to 0.2 µM.
For `Cc1ccc2c(N)c(C(=O)N[C@H]3COc4cc(N5C[C@H](N)CC[C@@H]5C(F)(F)F)ccc4C3)sc2n1` [Example 244, 3-amino-N-[(3R)-7-[(2R,5R)-5-amino-2-(trifluoromethyl)piperidin-1-yl]-3,4-dihydro-2H-1-benzopyran-3-yl]-6-methylthieno[2,3-b]pyridine-2-carboxamide], the 50% inhibitory concentration (IC50) is 0.001 to 0.05 µM.
For the compound `Cc1cc(C)c2c(N)c(C(=O)N[C@H]3COc4cc(N5CC[C@@H]6CNC[C@@H]65)cc(F)c4C3)sc2n1` (single isomer, unassigned) [Example 223], the IC50 was 0.05 to 0.2 µM.
With `CO[C@H]1CN(c2ccc3c(n2)CC[C@H](NC(=O)c2sc4nc(C)ccc4c2N)C3)C[C@]1(C)N` [Example 239, 3-amino-N-[(6S)-2-[(3S,4S)-3-amino-4-methoxy-3-methylpyrrolidin-1-yl]-5,6,7,8-tetrahydroquinolin-6-yl]-6-methylthieno[2,3-b]pyridine-2-carboxamide] the figure was above 2 µM; with `Cc1ccc2c(N)c(C(=O)N[C@H]3COc4cc(N5CC6CCC[C@@]6(N)C5)ccc4C3)sc2n1` (stereo partly drawn) [Example 248, N-[(3R)-7-[(3aS)-3a-amino-octahydrocyclopenta[c]pyrrol-2-yl]-3,4-dihydro-2H-1-benzopyran-3-yl]-3-amino-6-methylthieno[2,3-b]pyridine-2-carboxamide], 0.2 to 2 µM; with `Cc1ccc2c(N)c(C(=O)N[C@H]3CCc4nc(N5CC[C@H]6CNC[C@H]65)ccc4C3)sc2n1` [Example 216, N-[(6S)-2-[(3aS,6aS)-octahydropyrrolo[2,3-c]pyrrol-1-yl}-5,6,7,8-tetrahydroquinolin-6-yl]-3-amino-6-methylthieno[2,3-b]pyridine-2-carboxamide], 0.2 to 2 µM.
For the compound `Cc1ccc2c(N)c(C(=O)N[C@H]3COc4cc(N5C[C@@H]6NCCC(F)(F)[C@@H]6C5)ccc4C3)sc2n1` [Example 237, N-[(3R)-7-[(4aR,7aR)-4,4-difluoro-octahydro-1H-pyrrolo[3,4-b]pyridin-6-yl]-3,4-dihydro-2H-1-benzopyran-3-yl]-3-amino-6-methylthieno[2,3-b]pyridine-2-carboxamide], the IC50 lay in the range of 0.2 to 2 µM.
For the compound `CO[C@H]1CN(c2ccc3c(c2)CC[C@H](NC(=O)c2cnc4c(c2)[C@@H]2C[C@@H]2CN4)C3)C[C@@H]1N` [Example 189, (6aS,7aR)-N-[(2S)-6-[(3S,4S)-3-amino-4-methoxypyrrolidin-1-yl]-1,2,3,4-tetrahydronaphthalen-2-yl]-5H,6H,6aH,7H,7aH-cyclopropa[c]1,8-naphthyridine-2-carboxamide], the IC50 is above 2 µM.
In the case of `N#Cc1c(N2CC3CCC(C2)N3)cc(F)c2c1CC[C@H](NC(=O)c1cnc3c(c1)[C@H]1C[C@H]1CN3)C2` [Example 196, (6aR,7aS)-N-[(2S)-5-cyano-6-{3,8-diazabicyclo[3.2.1]octan-3-yl}-8-fluoro-1,2,3,4-tetrahydronaphthalen-2-yl]-5H,6H,6aH,7H,7aH-cyclopropa[c]1,8-naphthyridine-2-carboxamide] it was above 2 µM; in that of `N#Cc1c(N2CC3CCC(C2)N3)cc(F)c2c1CC[C@@H](NC(=O)c1cnc3c(c1)[C@@H]1C[C@@H]1CN3)C2` [Example 197, (6aS,7aR)-N-[(2R)-5-cyano-6-{3,8-diazabicyclo[3.2.1]octan-3-yl}-8-fluoro-1,2,3,4-tetrahydronaphthalen-2-yl]-5H,6H,6aH,7H,7aH-cyclopropa[c]1,8-naphthyridine-2-carboxamide], above 2 µM.
In the case of `Cc1nc2sc(C(=O)N[C@H]3CCc4nc(N5CCNCC5)ccc4C3)c(N)c2cc1F` [Example 204, 3-amino-5-fluoro-6-methyl-N-[(6S)-2-(piperazin-1-yl)-5,6,7,8-tetrahydroquinolin-6-yl]thieno[2,3-b]pyridine-2-carboxamide] it was 0.2 to 2 µM.
With `N#Cc1c(N2CC3CCC(C2)N3)cc(F)c2c1CC[C@@H](NC(=O)c1cnc3c(c1)[C@H]1C[C@H]1CN3)C2` [Example 198, (6aR,7aS)-N-[(2R)-5-cyano-6-{3,8-diazabicyclo[3.2.1]octan-3-yl}-8-fluoro-1,2,3,4-tetrahydronaphthalen-2-yl]-5H,6H,6aH,7H,7aH-cyclopropa[c]1,8-naphthyridine-2-carboxamide] the figure was 0.2 to 2 µM.
